From US20090198069A1, “METAL COMPLEX, LIGHT-EMITTING DEVICE AND DISPLAY” (NAGASAKI UNIVERSITY, NATIONAL UNIVERSITY CORPORATI, priority 2005, published 2009)

Experiment: Solubility in a solvent (qualitative)
Type: physicochemical
[1] = dichloromethane (methylene chloride)

Row | Compound | solubility in a solvent (acetone) | solubility in a solvent (chloroform) | solubility in a solvent [1] | solubility in a solvent (hexane) | solubility in a solvent (methanol) | solubility in a solvent (acetonitrile) | solubility in a solvent (benzene) | solubility in a solvent (toluene) | solubility in a solvent (diethyl ether) | solubility in a solvent (water)
1 | CC(C)(C)c1cc[n-]n1.CC(C)(C)c1cc[n-]n1.CC(C)(C)c1cc[nH]n1.CC(C)(C)c1cc[nH]n1.[Pt+2] [[Pt(3-^tBupz)2(3-^tBupzH)2]] | soluble | readily soluble | readily soluble | soluble | soluble | – | – | – | – | –
2 | CC(C)(C)c1cc[n+]2[n]1[Cu-][n+]1c(C(C)(C)C)cc[n]1[Pt-2]13[n]4ccc(C(C)(C)C)[n+]4[Cu-][n]4c(C(C)(C)C)cc[n+]4[Pt-2]2([n]2ccc(C(C)(C)C)[n+]2[Cu-][n]2c(C(C)(C)C)cc[n+]21)[n]1ccc(C(C)(C)C)[n+]1[Cu-][n]1c(C(C)(C)C)cc[n+]13 [[Pt2Cu4(μ-3-^tBupz)8]] | – | soluble | soluble | – | – | – | – | – | – | –
3 | CC(C)(C)c1cc[n+]2[n]1[Ag-][n+]1c(C(C)(C)C)cc[n]1[Pt-2]13[n]4ccc(C(C)(C)C)[n+]4[Ag-][n]4c(C(C)(C)C)cc[n+]4[Pt-2]2([n]2ccc(C(C)(C)C)[n+]2[Ag-][n]2c(C(C)(C)C)cc[n+]21)[n]1ccc(C(C)(C)C)[n+]1[Ag-][n]1c(C(C)(C)C)cc[n+]13 [[Pt2Ag4(μ-3-^tBupz)8]] | – | readily soluble | readily soluble | – | – | – | – | – | – | –
4 | Cc1cc(C)[n+]2[n]1[Pt-2]13[n]4c(C)cc(C)[n+]4[Ag-][n]4c(C)cc(C)[n+]4[Pt-2]([n]4c(C)cc(C)[n+]4[Ag-][n]4c(C)cc(C)[n+]41)([n]1c(C)cc(C)[n+]1[Ag-][n]1c(C)cc(C)[n+]13)[n+]1c(C)cc(C)[n]1[Ag-]2 [[Pt2Ag4(μ-dmpz)8]] | not soluble | extremely highly soluble | extremely highly soluble | moderately soluble | not soluble | moderately soluble | highly soluble | highly soluble | – | –
5 | Cc1ccn[n]1[Pt-2]([n]1nccc1C)([n+]1[nH]ccc1C)[n+]1[nH]ccc1C.Cc1ccn[n]1[Pt-2]([n]1nccc1C)([n+]1[nH]ccc1C)[n+]1[nH]ccc1C [[{Pt(3-Mepz)2(3-MepzH)2}2]] | – | readily soluble | readily soluble | – | – | – | soluble | soluble | soluble | –
6 | CC(C)(C)c1ccn[nH]1.CC(C)(C)c1ccn[nH]1.CC(C)(C)c1ccn[nH]1.CC(C)(C)c1ccn[nH]1.[Cl-].[Cl-].[Pt+2] [[Pt(3-^tBupzH)4]Cl2] | – | readily soluble | readily soluble | – | soluble | – | – | soluble | – | –
7 | c1ccc(-c2cc(-c3ccccc3)[n+]3[n]2[Pt-2]24[Cl+][Ag-][n]5c(-c6ccccc6)cc(-c6ccccc6)[n+]5[Pt-2]([Cl+][Ag-][n]5c(-c6ccccc6)cc(-c6ccccc6)[n+]52)([n]2c(-c5ccccc5)cc(-c5ccccc5)[n+]2[Ag-][n]2c(-c5ccccc5)cc(-c5ccccc5)[n+]24)[n+]2c(-c4ccccc4)cc(-c4ccccc4)[n]2[Ag-]3)cc1 [[Pt2Ag4(μ-Cl)2(μ-dppz)6]] | – | readily soluble | readily soluble | – | – | slightly soluble | soluble | soluble | – | –
8 | [Cl][Pt-2]([n]1nc(-c2ccccc2)cc1-c1ccccc1)([n+]1[nH]c(-c2ccccc2)cc1-c1ccccc1)[n+]1[nH]c(-c2ccccc2)cc1-c1ccccc1 [[PtCl(dppz)(dppzH)2]] | readily soluble | readily soluble | readily soluble | – | – | soluble | soluble | soluble | – | –
9 | Cc1cc[n+]2[n]1[Pt-2]13[n]4c(C)cc[n+]4[Ag-][n]4ccc(C)[n+]4[Pt-2]([n]4c(C)cc[n+]4[Ag-][n]4ccc(C)[n+]41)([n]1c(C)cc[n+]1[Ag-][n]1ccc(C)[n+]13)[n+]1c(C)cc[n]1[Ag-]2 [[Pt2Ag4(μ-3-Mepz)8]] | – | soluble | soluble | – | – | slightly soluble | slightly soluble | slightly soluble | – | –
10 | Cc1cc(C)[n+]2[n]1[Pt-2]13[n]4c(C)cc(C)[n+]4[Cu-][n]4c(C)cc(C)[n+]4[Pt-2]([n]4c(C)cc(C)[n+]4[Cu-][n]4c(C)cc(C)[n+]41)([n]1c(C)cc(C)[n+]1[Cu-][n]1c(C)cc(C)[n+]13)[n+]1c(C)cc(C)[n]1[Cu-]2 [[Pt2Cu4(μ-dmpz)8]] | slightly soluble | soluble | soluble | – | poorly soluble | poorly soluble | – | poorly soluble | slightly soluble | –
11 | Cc1cc(C)[n]([Pt-2]([n]2nc(C)cc2C)([n+]2[nH]c(C)cc2C)[n+]2[nH]c(C)cc2C)n1.Cc1cc(C)[n]([Pt-2]([n]2nc(C)cc2C)([n+]2[nH]c(C)cc2C)[n+]2[nH]c(C)cc2C)n1 [[{Pt(dmpz)2(dmpzH)2}2]] | not soluble | extremely highly soluble | extremely highly soluble | – | not soluble | moderately soluble | highly soluble | highly soluble | moderately soluble | not soluble
